Data published in patent publication US8710065B2, “Tricyclic inhibitors of kinases” (AbbVie Inc., priority 2011, dated 2014).

biological target: T1, GST-tagged-Wee1 kinase (Homo sapiens, UniProt P30291); assay: Wee1 time-resolved fluorescence equilibrium binding assay (displacement of Oregon Green-labeled ATP-competitive kinase probe); settings: read-out: Wee-1 inhibition (Ki)
T1 construct: purchased Carnabio (Carna Biosciences) 05-177
Procedure, shortened: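 Time-resolved fluorescence equilibrium binding with GST-Wee1, measuring displacement of a rapidly reversible Oregon Green-labelled ATP-competitive probe by competitive inhibitors; values reported as Ki.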

T1 sequence (P30291 whole entry): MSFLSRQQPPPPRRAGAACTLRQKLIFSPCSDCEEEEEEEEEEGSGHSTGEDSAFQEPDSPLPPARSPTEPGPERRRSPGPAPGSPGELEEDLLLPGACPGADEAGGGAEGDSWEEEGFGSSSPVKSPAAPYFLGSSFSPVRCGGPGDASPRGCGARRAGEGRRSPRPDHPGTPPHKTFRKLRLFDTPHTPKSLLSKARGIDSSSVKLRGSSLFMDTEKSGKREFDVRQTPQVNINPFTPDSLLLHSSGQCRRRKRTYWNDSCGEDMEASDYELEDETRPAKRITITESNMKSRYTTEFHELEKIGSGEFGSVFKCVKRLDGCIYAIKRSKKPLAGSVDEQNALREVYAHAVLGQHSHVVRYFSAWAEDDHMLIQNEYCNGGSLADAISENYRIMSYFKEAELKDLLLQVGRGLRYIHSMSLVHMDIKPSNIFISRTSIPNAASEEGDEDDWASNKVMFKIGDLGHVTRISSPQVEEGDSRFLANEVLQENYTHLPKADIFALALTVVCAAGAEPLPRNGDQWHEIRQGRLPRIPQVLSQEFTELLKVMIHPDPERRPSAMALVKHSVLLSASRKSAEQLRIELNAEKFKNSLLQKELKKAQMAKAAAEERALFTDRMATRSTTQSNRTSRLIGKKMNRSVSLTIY

Row | Ki [µM] | SMILES
1 | < 0.01 | CN(C)CCNc1ccc(Nc2ncc3c(=O)n(-c4c(Cl)cccc4Cl)c4nccn4c3n2)cc1 [Example 284, 6-(2,6-dichlorophenyl)-2-[(4-{[2-(dimethylamino)ethyl]amino}phenyl)amino]imidazo[1,2-a]pyrimido[5,4-e]pyrimidin-5(6H)-one]
2 | < 0.01 | O=c1c2cnc(Nc3ccc4c(c3)CN(S(=O)(=O)C3CC3)CC43CC3)nc2n2ccnc2n1-c1c(Cl)cccc1Cl [Example 285, 2-{[2′-(cyclopropylsulfonyl)-2′,3′-dihydro-1′H-spiro[cyclopropane-1,4′-isoquinolin]-7′-yl]amino}-6-(2,6-dichlorophenyl)imidazo[1,2-a]pyrimido[5,4-e]pyrimidin-5(6H)-one]
3 | < 0.01 | CC(C)S(=O)(=O)N1Cc2cc(Nc3ncc4c(=O)n(-c5c(Cl)cccc5Cl)c5nccn5c4n3)ccc2C2(CC2)C1 [Example 286, 6-(2,6-dichlorophenyl)-2-{[2′-(propan-2-ylsulfonyl)-2′,3′-dihydro-1′H-spiro[cyclopropane-1,4′-isoquinolin]-7′-yl]amino}imidazo[1,2-a]pyrimido[5,4-e]pyrimidin-5(6H)-one]
4 | < 0.01 | CN1CCC(c2ccc(Nc3ncc4c(=O)n(-c5c(Cl)cccc5Cl)c5nccn5c4n3)cc2)CC1 [Example 287, 6-(2,6-dichlorophenyl)-2-{[4-(1-methylpiperidin-4-yl)phenyl]amino}imidazo[1,2-a]pyrimido[5,4-e]pyrimidin-5(6H)-one]
5 | < 0.01 | O=c1c2cnc(Nc3ccc(N4CCC5(CC4)CNC5)cc3)nc2n2ccnc2n1-c1c(Cl)cccc1Cl [Example 288, 2-{[4-(2,7-diazaspiro[3.5]non-7-yl)phenyl]amino}-6-(2,6-dichlorophenyl)imidazo[1,2-a]pyrimido[5,4-e]pyrimidin-5(6H)-one]
6 | 0.01 to 0.1 | O=c1c2cnc(Nc3ccc(N4CCCC4C(F)(F)F)cc3)nc2n2ccnc2n1-c1ccccc1Cl (centres unmarked) [Example 289, 6-(2-chlorophenyl)-2-({4-[2-(trifluoromethyl)pyrrolidin-1-yl]phenyl}amino)imidazo[1,2-a]pyrimido[5,4-e]pyrimidin-5(6H)-one]
7 | < 0.01 | O=c1c2cnc(Nc3ccc(OC4CCNCC4)cc3)nc2n2ccnc2n1-c1ccccc1Cl [Example 290, 6-(2-chlorophenyl)-2-{[4-(piperidin-4-yloxy)phenyl]amino}imidazo[1,2-a]pyrimido[5,4-e]pyrimidin-5(6H)-one]
8 | < 0.01 | O=c1c2cnc(Nc3ccc(CC4CCNCC4)cc3)nc2n2ccnc2n1-c1ccccc1Cl [Example 291, 6-(2-chlorophenyl)-2-{[4-(piperidin-4-ylmethyl)phenyl]amino}imidazo[1,2-a]pyrimido[5,4-e]pyrimidin-5(6H)-one]
9 | < 0.01 | O=c1c2cnc(Nc3ccc(N4CC5CNCC5C4)cc3)nc2n2ccnc2n1-c1ccccc1Cl (centres unmarked) [Example 292, 6-(2-chlorophenyl)-2-{[4-(hexahydropyrrolo[3,4-c]pyrrol-2(1H)-yl)phenyl]amino}imidazo[1,2-a]pyrimido[5,4-e]pyrimidin-5(6H)-one]
10 | 0.01 to 0.1 | CNS(=O)(=O)Cc1ccc(Nc2ncc3c(=O)n(-c4ccccc4Cl)c4nccn4c3n2)cc1 [Example 293, 1-(4-{[6-(2-chlorophenyl)-5-oxo-5,6-dihydroimidazo[1,2-a]pyrimido[5,4-e]pyrimidin-2-yl]amino}phenyl)-N-methylmethanesulfonamide]
11 | 0.01 to 0.1 | CCN(CC)S(=O)(=O)c1ccc(Nc2ncc3c(=O)n(-c4ccccc4Cl)c4nccn4c3n2)cc1 [Example 294, 4-{[6-(2-chlorophenyl)-5-oxo-5,6-dihydroimidazo[1,2-a]pyrimido[5,4-e]pyrimidin-2-yl]amino}-N,N-diethylbenzenesulfonamide]
12 | < 0.01 | O=c1c2cnc(Nc3ccc4c(c3)CC(NC3CC3)C4)nc2n2ccnc2n1-c1c(Cl)cccc1Cl (centres unmarked) [Example 295, 2-{[2-(cyclopropylamino)-2,3-dihydro-1H-inden-5-yl]amino}-6-(2,6-dichlorophenyl)imidazo[1,2-a]pyrimido[5,4-e]pyrimidin-5(6H)-one]
13 | < 0.01 | O=c1c2cnc(Nc3ccc4c(c3)CC(NCCF)C4)nc2n2ccnc2n1-c1c(Cl)cccc1Cl (centres unmarked) [Example 296, 6-(2,6-dichlorophenyl)-2-({2-[(2-fluoroethyl)amino]-2,3-dihydro-1H-inden-5-yl}amino)imidazo[1,2-a]pyrimido[5,4-e]pyrimidin-5(6H)-one]
14 | < 0.01 | CCCNC1Cc2ccc(Nc3ncc4c(=O)n(-c5c(Cl)cccc5Cl)c5nccn5c4n3)cc2C1 (centres unmarked) [Example 297, 6-(2,6-dichlorophenyl)-2-{[2-(propylamino)-2,3-dihydro-1H-inden-5-yl]amino}imidazo[1,2-a]pyrimido[5,4-e]pyrimidin-5(6H)-one]
15 | < 0.01 | CC(=O)N1CC2(CCN(c3ccc(Nc4ncc5c(=O)n(-c6c(Cl)cccc6Cl)c6nccn6c5n4)cc3)CC2)C1 [Example 298, 2-{[4-(2-acetyl-2,7-diazaspiro[3.5]non-7-yl)phenyl]amino}-6-(2,6-dichlorophenyl)imidazo[1,2-a]pyrimido[5,4-e]pyrimidin-5(6H)-one]
16 | < 0.01 | CS(=O)(=O)N1CC2(CCN(c3ccc(Nc4ncc5c(=O)n(-c6c(Cl)cccc6Cl)c6nccn6c5n4)cc3)CC2)C1 [Example 299, 6-(2,6-dichlorophenyl)-2-({4-[2-(methylsulfonyl)-2,7-diazaspiro[3.5]non-7-yl]phenyl}amino)imidazo[1,2-a]pyrimido[5,4-e]pyrimidin-5(6H)-one]
17 | < 0.01 | CNC(=O)N1Cc2cc(Nc3ncc4c(=O)n(-c5c(F)cccc5Cl)c5nccn5c4n3)ccc2C2(CC2)C1 [Example 300, 7′-{[6-(2-chloro-6-fluorophenyl)-5-oxo-5,6-dihydroimidazo[1,2-a]pyrimido[5,4-e]pyrimidin-2-yl]amino}-N-methyl-1′H-spiro[cyclopropane-1,4′-isoquinoline]-2′(3′H)-carboxamide]
18 | < 0.01 | CC(C)NC(=O)N1Cc2cc(Nc3ncc4c(=O)n(-c5c(F)cccc5Cl)c5nccn5c4n3)ccc2C2(CC2)C1 [Example 301, 7′-{[6-(2-chloro-6-fluorophenyl)-5-oxo-5,6-dihydroimidazo[1,2-a]pyrimido[5,4-e]pyrimidin-2-yl]amino}-N-(propan-2-yl)-1′H-spiro[cyclopropane-1,4′-isoquinoline]-2′(3′H)-carboxamide]
19 | < 0.01 | CC1(C)CN(CCF)Cc2cc(Nc3ncc4c(=O)n(-c5c(Cl)cccc5Cl)c5nccn5c4n3)ccc21 [Example 302, 6-(2,6-dichlorophenyl)-2-{[2-(2-fluoroethyl)-4,4-dimethyl-1,2,3,4-tetrahydroisoquinolin-7-yl]amino}imidazo[1,2-a]pyrimido[5,4-e]pyrimidin-5(6H)-one]
20 | < 0.01 | CS(=O)(=O)N1CC2(CN(c3ccc(Nc4ncc5c(=O)n(-c6c(Cl)cccc6Cl)c6nccn6c5n4)cc3)C2)C1 [Example 303, 6-(2,6-dichlorophenyl)-2-({4-[6-(methylsulfonyl)-2,6-diazaspiro[3.3]hept-2-yl]phenyl}amino)imidazo[1,2-a]pyrimido[5,4-e]pyrimidin-5(6H)-one]
21 | < 0.01 | O=c1c2cnc(Nc3ccc(N4CC5(CNC5)C4)cc3)nc2n2ccnc2n1-c1c(Cl)cccc1Cl [Example 304, 2-{[4-(2,6-diazaspiro[3.3]hept-2-yl)phenyl]amino}-6-(2,6-dichlorophenyl)imidazo[1,2-a]pyrimido[5,4-e]pyrimidin-5(6H)-one]
22 | < 0.01 | O=c1c2cnc(Nc3ccc4c(c3)CC(N3CCCC3)C4)nc2n2ccnc2n1-c1c(Cl)cccc1Cl (centres unmarked) [Example 305, 6-(2,6-dichlorophenyl)-2-{[2-(pyrrolidin-1-yl)-2,3-dihydro-1H-inden-5-yl]amino}imidazo[1,2-a]pyrimido[5,4-e]pyrimidin-5(6H)-one]
23 | < 0.01 | O=c1c2cnc(Nc3ccc4c(c3)CC(N3CC[C@H](F)C3)C4)nc2n2ccnc2n1-c1c(Cl)cccc1Cl (stereo partly drawn) [Example 306, 6-(2,6-dichlorophenyl)-2-({2-[(3S)-3-fluoropyrrolidin-1-yl]-2,3-dihydro-1H-inden-5-yl}amino)imidazo[1,2-a]pyrimido[5,4-e]pyrimidin-5(6H)-one]
24 | < 0.01 | CC1(C)CNCc2cc(Nc3ncc4c(=O)n(-c5c(Cl)cccc5Cl)c5nccn5c4n3)ccc21 [Example 307, 6-(2,6-dichlorophenyl)-2-[(4,4-dimethyl-1,2,3,4-tetrahydroisoquinolin-7-yl)amino]imidazo[1,2-a]pyrimido[5,4-e]pyrimidin-5(6H)-one]
25 | < 0.01 | O=c1c2cnc(Nc3ccc(NC4CCNCC4)cc3)nc2n2ccnc2n1-c1c(Cl)cccc1Cl [Example 308, 6-(2,6-dichlorophenyl)-2-{[4-(piperidin-4-ylamino)phenyl]amino}imidazo[1,2-a]pyrimido[5,4-e]pyrimidin-5(6H)-one]
26 | < 0.01 | CN1CCC(c2ccc(Nc3ncc4c(=O)n(-c5c(F)cccc5Cl)c5nccn5c4n3)cc2)CC1 [Example 309, 6-(2-chloro-6-fluorophenyl)-2-{[4-(1-methylpiperidin-4-yl)phenyl]amino}imidazo[1,2-a]pyrimido[5,4-e]pyrimidin-5(6H)-one]
27 | < 0.01 | CC(=O)N1Cc2cc(Nc3ncc4c(=O)n(-c5c(F)cccc5Cl)c5nccn5c4n3)ccc2C(C)(C)C1 [Example 310, 2-[(2-acetyl-4,4-dimethyl-1,2,3,4-tetrahydroisoquinolin-7-yl)amino]-6-(2-chloro-6-fluorophenyl)imidazo[1,2-a]pyrimido[5,4-e]pyrimidin-5(6H)-one]
28 | < 0.01 | CC1(C)CN(C(=O)C2CC2)Cc2cc(Nc3ncc4c(=O)n(-c5c(F)cccc5Cl)c5nccn5c4n3)ccc21 [Example 311, 6-(2-chloro-6-fluorophenyl)-2-{[2-(cyclopropylcarbonyl)-4,4-dimethyl-1,2,3,4-tetrahydroisoquinolin-7-yl]amino}imidazo[1,2-a]pyrimido[5,4-e]pyrimidin-5(6H)-one]
29 | < 0.01 | CC1(C)CN(S(C)(=O)=O)Cc2cc(Nc3ncc4c(=O)n(-c5c(F)cccc5Cl)c5nccn5c4n3)ccc21 [Example 312, 6-(2-chloro-6-fluorophenyl)-2-{[4,4-dimethyl-2-(methylsulfonyl)-1,2,3,4-tetrahydroisoquinolin-7-yl]amino}imidazo[1,2-a]pyrimido[5,4-e]pyrimidin-5(6H)-one]
